This assay deals with T1, MshC (Mycobacterium tuberculosis, UniProt P9WJM9).
T1 sequence (P9WJM9 1-414): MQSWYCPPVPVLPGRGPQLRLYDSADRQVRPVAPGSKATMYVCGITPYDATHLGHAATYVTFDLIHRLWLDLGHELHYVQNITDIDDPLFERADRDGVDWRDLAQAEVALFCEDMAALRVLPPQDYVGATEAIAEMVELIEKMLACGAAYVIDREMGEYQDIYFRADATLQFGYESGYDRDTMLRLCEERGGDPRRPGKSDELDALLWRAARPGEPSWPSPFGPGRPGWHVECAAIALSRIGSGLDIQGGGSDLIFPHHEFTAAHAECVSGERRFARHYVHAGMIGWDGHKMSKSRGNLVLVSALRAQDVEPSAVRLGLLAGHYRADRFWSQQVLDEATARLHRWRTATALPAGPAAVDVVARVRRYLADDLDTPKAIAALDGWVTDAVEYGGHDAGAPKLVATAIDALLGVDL
Briefly: biochemical. The assay is classed as biochemical, M. tuberculosis. Particulars: for inhibition of MshC in words, compounds grouped by X: X=S, X=SO, X=SO2.

Read-outs that look alike come from different tables or passages of the source. Some results are limits rather than exact numbers.

For the compound `CCC1CCCN(CCCNC(=O)c2ccc3c(c2)N(Cc2cccc(Cl)c2)C(=O)c2ccccc2[S+]3[O-])C1` (centres unmarked) [Inhibitor 83-66], the “inhibition of MshC in words, 1,3-diaminopropyl residue with remote amino residue capable of protonation” value (“inhibition of MshC in words … of protonation” for short) is recorded as “measurable inhibition”; the “inhibition of MshC in words, Z is a benzyl moiety bearing one or more halogens” value is “Measurable inhibition”; the “inhibition of MshC in words, compounds grouped by X” value (shortened to “inhibition of MshC in words … by X”) is “Significant inhibition”. In addition, the IC50 (IC50) amounted to 80 ± 20 µM. Consider `O=C(NC1CCN(Cc2ccccc2)CC1)c1ccc2c(c1)N(Cc1cccc(Cl)c1)C(=O)c1ccccc1[S+]2[O-]` (centres unmarked) [Inhibitor 83-68], for which the IC50 (IC50) is 1500 ± 500 µM. As for `CN(CCCNC(=O)c1ccc2c(c1)N(Cc1ccc(Cl)cc1)C(=O)c1ccccc1S2(=O)=O)C1CCCCC1` [Inhibitor 83-35], the “inhibition of MshC in words … by X” value is listed as “Significant inhibition”. Also, the half-maximal inhibitory concentration (IC50) (IC50) came out at 350 ± 40 µM.

As for `CCCCN(C)CCCNC(=O)c1ccc2c(c1)N(Cc1cc(C)ccc1C)C(=O)c1ccccc1[S+]2[O-]` (centres unmarked) [Inhibitor 1062], the “inhibition of MshC in words … of protonation” value is given as “measurable inhibition” and the “inhibition of MshC in words, Z benzyl moiety with methyl groups in the 2,5 positions or unsubstituted” value was “Weak but detectable inhibition”. This compound also yielded an IC50 (IC50, μM) of approximately 2500 µM.

Regarding `CCC1CCCCN1CCCNC(=O)c1ccc2c(c1)N(Cc1ccccc1)C(=O)c1ccccc1S2(=O)=O` (centres unmarked) [Inhibitor 83-48], where the note is “IC50”, the IC50 is not below 500 µM. In the case of `CC1CC(C)CN(CCCNC(=O)c2ccc3c(c2)N(Cc2ccccc2F)C(=O)c2ccccc2S3(=O)=O)C1` (centres unmarked) [Inhibitor 1138], for the setting “IC50, μM”, the IC50 is more than 3000 µM. For `Nc1ncnc2c1ncn2[C@@H]1O[C@H](COS(=O)(=O)NC(=O)[C@@H](N)CS)[C@@H](O)[C@H]1O` [5′-O-[N-(L-cysteinyl)sulfamoyl]adenosine, reference compound], the IC50 (assayed under the conditions described in [0186], read-out: IC50 (inhibits MshC)) is approximately 0.04 µM. Turning to `CCC1CCCCN1CCNC(=O)c1ccc2c(c1)N(Cc1ccc(F)cc1Cl)C(=O)c1ccccc1S2` (centres unmarked) [Inhibitor 1806], the “inhibition of MshC in words, Z is a benzyl moiety bearing one or more halogens” value is on record as “Measurable inhibition” and the “inhibition of MshC in words … by X” value is recorded as “Significant inhibition”. This compound showed an IC50 (IC50, μM) of approximately 750 µM. For the compound `CCCCN(C)CCCNC(=O)c1ccc2c(c1)N(Cc1cccc(Cl)c1)C(=O)c1ccccc1S2(=O)=O` [Inhibitor 1965], the “inhibition of MshC in words … of protonation” value is reported as “measurable inhibition”; the “inhibition of MshC in words, Z is a benzyl moiety bearing one or more halogens” value is given as “Measurable inhibition”; the “inhibition of MshC in words … by X” value was “Significant inhibition”. In addition, the midpoint of inhibition (IC50, μM), the IC50, lay at 1700 ± 300 µM. For the setting “IC50”, `CN(CCCNC(=O)c1ccc2c(c1)N(Cc1ccc(Cl)cc1)C(=O)c1ccccc1S2(=O)=O)c1ccccc1` [Inhibitor 83-36] gave a 50% inhibitory concentration (IC50) of more than 3000 µM.

As to `O=C(NCCN1CCN(Cc2ccccc2)CC1)c1ccc2c(c1)N(Cc1cccc(Cl)c1)C(=O)c1ccccc1[S+]2[O-]` (centres unmarked) [Inhibitor 83-69], the “inhibition of MshC in words, compounds lacking the basic amino group or with groups in excess of 10 carbons on the remote amino residue” value (“inhibition of MshC … on the remote amino residue” below) was “little or no inhibition”. The half-maximal inhibitory concentration (IC50) (IC50) stood at 2500 ± 700 µM. The compound `CC1CC(C)CN(CCCNC(=O)c2ccc3c(c2)N(Cc2cccc(Cl)c2)C(=O)c2ccccc2S3(=O)=O)C1` (centres unmarked) [Inhibitor 83-77] returned a half-inhibitory concentration (IC50) (IC50) of 2300 ± 700 µM. The same measure, in the same setting: the value for `CCC1CCCCN1CCCNC(=O)c1ccc2c(c1)N(Cc1cccc(C)c1)C(=O)c1ccccc1S2(=O)=O` (centres unmarked) [Inhibitor 83-21] was approximately 2000 µM. Consider `CCN1C(=O)c2ccccc2[S+]([O-])c2ccc(C(=O)NCCCSC3CCCCC3)cc21` (centres unmarked) [Inhibitor 83-18], for which the IC50 (IC50) is more than 3000 µM. Take `CN(CCCNC(=O)c1ccc2c(c1)N(Cc1ccccc1Cl)C(=O)c1ccccc1S2)c1ccccc1` [Inhibitor 1920]: the “inhibition of MshC … on the remote amino residue” value is “little or no inhibition”. This compound registered a half-inhibitory concentration (IC50) (IC50, μM) of more than 3000 µM.

For the compound `O=C(NCCN1CCN(Cc2ccccc2)CC1)c1ccc2c(c1)N(Cc1cccc(Cl)c1)C(=O)c1ccccc1[S+]2[O-]` (centres unmarked) [Inhibitor 83-56], the “inhibition of MshC … on the remote amino residue” value is “little or no inhibition”. Also, the half-maximal inhibitory concentration (IC50) (IC50) is more than 3000 µM. In the case of `CCCN(CCC)CCCNC(=O)c1ccc2c(c1)N(Cc1ccc(F)cc1)C(=O)c1ccccc1[S+]2[O-]` (centres unmarked) [Inhibitor 83-05], under “IC50”, the IC50 is more than 3000 µM. With `CC(C)CN(CCCNC(=O)c1ccc2c(c1)N(Cc1ccc(Cl)cc1)C(=O)c1ccccc1S2(=O)=O)CC(C)C` [Inhibitor 83-34], the IC50 (IC50) was more than 3000 µM. Take `CCCCSCCCNC(=O)c1ccc2c(c1)N(Cc1cccc(Cl)c1)C(=O)c1ccccc1[S+]2[O-]` (centres unmarked) [Inhibitor 83-74]: the “inhibition of MshC … on the remote amino residue” value is given as “little or no inhibition”. Besides, where the note is “IC50”, the half-inhibitory concentration (IC50) was more than 3000 µM.

For the compound `Cc1ccc(C)c(CN2C(=O)c3ccccc3S(=O)(=O)c3ccc(C(=O)NCCCSC4CCCCC4)cc32)c1` [Inhibitor 83-47], the “inhibition of MshC … on the remote amino residue” value was “little or no inhibition”. This compound returned an IC50 (IC50) of more than 3000 µM. `COC(=O)c1cc(NC(=O)c2ccc3c(c2)N(Cc2cccc(Cl)c2)C(=O)c2ccccc2[S+]3[O-])cc(C(=O)OC)c1` (centres unmarked) [Inhibitor 1986] displayed an IC50 (IC50, μM) of more than 3000 µM. Turning to `O=C(NCCCN1CCOCC1)c1ccc2c(c1)N(Cc1cccc(Cl)c1)C(=O)c1ccccc1S2` [Inhibitor 1937], the “inhibition of MshC in words … of protonation” value was “measurable inhibition”; the “inhibition of MshC in words, Z is a benzyl moiety bearing one or more halogens” value was “Measurable inhibition”; the “inhibition of MshC in words … by X” value is listed as “Significant inhibition”. The IC50 (IC50, μM) was found to be 780 ± 120 µM. Regarding `Cc1cccc(CN2C(=O)c3ccccc3S(=O)(=O)c3ccc(C(=O)NCCCN(C)C4CCCCC4)cc32)c1` [Inhibitor 83-25], the IC50 (IC50) is more than 3000 µM. For the compound `O=C(NCCN1CCN(Cc2ccccc2)CC1)c1ccc2c(c1)N(Cc1cccc(Cl)c1)C(=O)c1ccccc1S2(=O)=O` [Inhibitor 83-79], the “inhibition of MshC … on the remote amino residue” value is “little or no inhibition”. The same compound showed an IC50 (IC50) of more than 3000 µM. Compound `CC(C)CN(CCCNC(=O)c1ccc2c(c1)N(Cc1ccccc1)C(=O)c1ccccc1S2(=O)=O)CC(C)C` [Inhibitor 83-53] returned an IC50 (IC50) of more than 3000 µM. `Cc1cccc(CN2C(=O)c3ccccc3S(=O)(=O)c3ccc(C(=O)NCCCN4CCCCCC4)cc32)c1` [Inhibitor 83-23] came in with a half-maximal inhibitory concentration (IC50) (IC50) of more than 3000 µM. As for `O=C(NCCCN1CCCCC1)c1ccc2c(c1)N(Cc1cccc(Cl)c1)C(=O)c1ccccc1S2` [Inhibitor 1776], the “inhibition of MshC in words … of protonation” value is recorded as “measurable inhibition”; the “inhibition of MshC in words, Z is a benzyl moiety bearing one or more halogens” value is on record as “Measurable inhibition”; the “inhibition of MshC in words … by X” value is given as “Significant inhibition”. The compound further came in with a half-maximal inhibitory concentration (IC50) (IC50, μM) of 320 ± 50 µM. `Cc1ccc(CN2C(=O)c3ccccc3Sc3ccc(C(=O)NCC(C)CN4CCC(C)CC4)cc32)cc1` (centres unmarked) [Inhibitor 1671]: under “IC50, μM”, the concentration for half-maximal inhibition (IC50) is more than 3000 µM. With `CC1CC(C)CN(CCCNC(=O)c2ccc3c(c2)N(Cc2ccc(Cl)cc2)C(=O)c2ccccc2S3(=O)=O)C1` (centres unmarked) [Inhibitor 83-29], under “IC50”, the 50% inhibitory concentration (IC50) was more than 3000 µM. On to `CC1CCCN(CCCNC(=O)c2ccc3c(c2)N(Cc2ccccc2F)C(=O)c2ccccc2S3(=O)=O)C1` (centres unmarked) [Inhibitor 83-40], for which the “inhibition of MshC in words … of protonation” value is “measurable inhibition”; the “inhibition of MshC in words, Z is a benzyl moiety bearing one or more halogens” value is on record as “Measurable inhibition”; the “inhibition of MshC in words … by X” value is “Significant inhibition”. The compound also yielded an IC50 (IC50) of 100 ± 30 µM. Consider `CCCCN(C)CCCNC(=O)c1ccc2c(c1)N(Cc1cccc(Cl)c1)C(=O)c1ccccc1[S+]2[O-]` (centres unmarked) [Inhibitor 83-60], for which the “inhibition of MshC in words … by X” value is on record as “Significant inhibition”.

With `Cc1ccc(C)c(CN2C(=O)c3ccccc3[S+]([O-])c3ccc(C(=O)NCCCN(C)C4CCCCC4)cc32)c1` (centres unmarked) [Inhibitor 83-08], the “inhibition of MshC in words … by X” value is on record as “Significant inhibition”. The same compound registered a half-maximal inhibitory concentration (IC50) (IC50) of approximately 3000 µM. Take `CCN1C(=O)c2ccccc2[S+]([O-])c2ccc(C(=O)NCCCN3CCCCCC3)cc21` (centres unmarked) [Inhibitor 83-15]: the IC50 (IC50) is more than 3000 µM. Where the note is “IC50, μM”, `Cc1ccc(C)c(CN2C(=O)c3ccccc3S(=O)(=O)c3ccc(C(=O)NCCN4CCCCC4)cc32)c1` [Inhibitor 1173] returned a half-inhibitory concentration (IC50) of more than 2000 µM. Turning to `O=C(NCCCSC1CCCCC1)c1ccc2c(c1)N(Cc1cccc(Cl)c1)C(=O)c1ccccc1[S+]2[O-]` (centres unmarked) [Inhibitor 83-61], the “inhibition of MshC … on the remote amino residue” value is on record as “little or no inhibition”. For the setting “IC50”, this compound returned a half-maximal inhibitory concentration (IC50) of approximately 1000 µM. Take `O=C(NCCCC1CCCCCC1)c1ccc2c(c1)N(Cc1cccc(Cl)c1)C(=O)c1ccccc1S2(=O)=O` [Inhibitor 83-58]: the “inhibition of MshC in words, Z is a benzyl moiety bearing one or more halogens” value was “Measurable inhibition”. The compound further gave an IC50 (IC50) not below 500 µM. For the compound `Cc1ccc(C)c(CN2C(=O)c3ccccc3[S+]([O-])c3ccc(C(=O)NCCCN4CCCCCC4)cc32)c1` (centres unmarked) [Inhibitor 83-07], the “inhibition of MshC in words … of protonation” value is reported as “measurable inhibition”; the “inhibition of MshC in words, Z benzyl moiety with methyl groups in the 2,5 positions or unsubstituted” value is “Weak but detectable inhibition”; the “inhibition of MshC in words … by X” value was “Significant inhibition”. The compound also returned an IC50 (IC50) of 650 ± 50 µM. Take `CCCCN(C)CCCNC(=O)c1ccc2c(c1)N(Cc1cccc(C)c1)C(=O)c1ccccc1S2(=O)=O` [Inhibitor 83-24]: where the note is “IC50”, it took 1500 ± 500 µM to reach half-maximal inhibition (IC50). For the compound `COC(=O)c1cc2c(cc1NC(=O)c1ccc3c(c1)N(Cc1cccc(Cl)c1)C(=O)c1ccccc1[S+]3[O-])OCCO2` (centres unmarked) [Inhibitor 1984], the IC50 (IC50, μM) is more than 3000 µM.

The values are drawn from US20100022509A1, “Inhibitors of MshC and Homologs Thereof, and Methods of Identifying Same” (priority 2006, published 2010).
